Values joined by “and” are separate entries in the source; they are usually repeats but may differ in a detail not shown here. Identical values can stand only once.
Experiment: xn = mol fraction of the nth substance listed

C[S+](C)C.O=S(=O)([N-]S(=O)(=O)C(F)(F)F)C(F)(F)F + CC1COC(=O)O1
101 kPa
Settings | electrical conductivity [S/m]
283.15 K, x2 = 0.76 | 0.862
298.15 K, x1 = 0.0005 | 0.035
298.15 K, x1 = 0.0008 | 0.044
298.15 K, x2 = 0.6202 | 1.29
333.15 K, x2 = 0.76 | 2.54

C[S+](C)C.O=S(=O)([N-]S(=O)(=O)C(F)(F)F)C(F)(F)F + CC#N
101 kPa
Settings | electrical conductivity
264.85 K, x2 = 0.87 | 3.61 S/m
273.15 K, x2 = 0.87 | 4.06 S/m
298.15 K, x1 = 0.0001 | 0.027 S/m and 0.059 S/m
298.15 K, x1 = 0.0005 | 0.208 S/m
323.15 K, x2 = 0.87 | 6.94 S/m

CC(=O)[O-].CCCC[N+](CCCC)(CCCC)CCCC + CC(=O)O + O
303.15 K, 100 kPa
Settings | viscosity [mPa·s]
x2 = 0, x3 = 0.0263 | 680
x2 = 0.0971, x3 = 0.0291 | 460
x2 = 0.194, x3 = 0.0301 | 297
x2 = 0.3213, x3 = 0.0263 | 169
x2 = 0.4883, x3 = 0.0234 | 83
x2 = 0.6588, x3 = 0.0167 | 41
x2 = 0.7897, x3 = 0.0128 | 25
x2 = 0.8911, x3 = 0.0099 | 19

NCCCNCCCN + CC(=O)[O-].CCCC[n+]1ccn(C)c1 + O
viscosity [mPa·s], 101 kPa
Settings | 298.15 K | 303.15 K | 308.15 K | 313.15 K | 318.15 K | 323.15 K | 328.15 K | 333.15 K
x2 = 0.03479, x1 = 0.0177 | 3.36 | 3.32 | 3.14 | 2.86 | 2.61 | 2.28 | 1.96 | 1.77
x2 = 0.03897, x1 = 0.01333 | 3.54 | 3.51 | 3.28 | 2.95 | 2.66 | 2.52 | 2.34 | 2.15
x2 = 0.04311, x1 = 0.00893 | 3.88 | 3.76 | 3.32 | 2.96 | 2.74 | 2.62 | 2.37 | 2.24

CC(C)=O + CC(=O)[O-].CC[NH2+]CC
Settings | viscosity [mPa·s]
298.15 K, 101 kPa, x2 = 0 | 0.309

CCCCCC[n+]1ccn(C)c1.F[B-](F)(F)F + CC(C)(C)O
298.15 K, 101 kPa
Settings | viscosity [mPa·s]
x2 = 0.3074 | 69.2
x2 = 0.8007 | 13.92
